Experimental data published in PMC11576293, “New series of 4,6-diaryl pyrimidines: facile synthesis and antiproliferative activity as dual EGFR/VEGFR-2 inhibitors” (Frontiers in Chemistry, 2024).

What was measured:
SN12C = assay: NCI-60 single-dose screen; type: cell-based; settings: Homo sapiens, single dose 10 µM, '-' = no inhibition, read-out: % Growth Inhibition
How it was run: (§1)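 NCI DTP single-dose screen; 10 μM compound; 60-line panel, nine cancer types.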

NCI-H23 = assay: NCI-60 single-dose screen; type: cell-based; settings: Homo sapiens, single dose 10 µM, '-' = no inhibition, read-out: % Growth Inhibition
How it was run: as §1

UACC-257 = assay: NCI-60 single-dose screen; type: cell-based; settings: Homo sapiens, single dose 10 µM, '-' = no inhibition, read-out: % Growth Inhibition
How it was run: as §1

UACC-62 = assay: NCI-60 single-dose screen; type: cell-based; settings: Homo sapiens, single dose 10 µM, '-' = no inhibition, read-out: % Growth Inhibition
How it was run: as §1

MDA-MB-435 = assay: NCI-60 single-dose screen; type: cell-based; settings: Homo sapiens, single dose 10 µM, '-' = no inhibition, read-out: % Growth Inhibition
How it was run: as §1

ACHN 1 = assay: NCI-60 single-dose screen; type: cell-based; settings: Homo sapiens, single dose 10 µM, '-' = no inhibition, read-out: % Growth Inhibition
How it was run: as §1

MDA-MB-468 = assay: NCI-60 single-dose screen; type: cell-based; settings: Homo sapiens, single dose 10 µM, '-' = no inhibition, read-out: % Growth Inhibition
How it was run: as §1

PC-3 = assay: NCI-60 single-dose screen; type: cell-based; settings: Homo sapiens, single dose 10 µM, '-' = no inhibition, read-out: % Growth Inhibition
How it was run: as §1

RXF 393 = assay: NCI-60 single-dose screen; type: cell-based; settings: Homo sapiens, single dose 10 µM, '-' = no inhibition, read-out: % Growth Inhibition
How it was run: as §1

MOLT-4 = assay: NCI-60 single-dose screen; type: cell-based; settings: Homo sapiens, single dose 10 µM, '-' = no inhibition, read-out: % Growth Inhibition
How it was run: as §1

SF-539 = assay: NCI-60 single-dose screen; type: cell-based; settings: Homo sapiens, single dose 10 µM, '-' = no inhibition, read-out: % Growth Inhibition
How it was run: as §1

RPMI-8226 = assay: NCI-60 single-dose screen; type: cell-based; settings: Homo sapiens, single dose 10 µM, '-' = no inhibition, read-out: % Growth Inhibition
How it was run: as §1

OVCAR-8 = assay: NCI-60 single-dose screen; type: cell-based; settings: Homo sapiens, single dose 10 µM, '-' = no inhibition, read-out: % Growth Inhibition
How it was run: as §1

KM12 = assay: NCI-60 single-dose screen; type: cell-based; settings: Homo sapiens, single dose 10 µM, '-' = no inhibition, read-out: % Growth Inhibition
How it was run: as §1

HT29 = assay: NCI-60 single-dose screen; type: cell-based; settings: Homo sapiens, HT-29, single dose 10 µM, '-' = no inhibition, read-out: % Growth Inhibition
How it was run: as §1

SW-620 = assay: NCI-60 single-dose screen; type: cell-based; settings: Homo sapiens, single dose 10 µM, '-' = no inhibition, read-out: % Growth Inhibition
How it was run: as §1

BT-549 = assay: NCI-60 single-dose screen; type: cell-based; settings: Homo sapiens, single dose 10 µM, '-' = no inhibition, read-out: % Growth Inhibition
How it was run: as §1

SNB-19 = assay: NCI-60 single-dose screen; type: cell-based; settings: Homo sapiens, single dose 10 µM, '-' = no inhibition, read-out: % Growth Inhibition
How it was run: as §1

DU-145 = assay: NCI-60 single-dose screen; type: cell-based; settings: Homo sapiens, single dose 10 µM, '-' = no inhibition, read-out: % Growth Inhibition
How it was run: as §1

NCI-H460 = assay: NCI-60 single-dose screen; type: cell-based; settings: Homo sapiens, single dose 10 µM, '-' = no inhibition, read-out: % Growth Inhibition
How it was run: as §1

NCI-H322M = assay: NCI-60 single-dose screen; type: cell-based; settings: Homo sapiens, single dose 10 µM, '-' = no inhibition, read-out: % Growth Inhibition
How it was run: as §1

NCI/ADR-RES = assay: NCI-60 single-dose screen; type: cell-based; settings: Homo sapiens, single dose 10 µM, '-' = no inhibition, read-out: % Growth Inhibition
How it was run: as §1

CCRF-CEM = assay: NCI-60 single-dose screen; type: cell-based; settings: Homo sapiens, single dose 10 µM, '-' = no inhibition, read-out: % Growth Inhibition
How it was run: as §1

SK-MEL-28 = assay: NCI-60 single-dose screen; type: cell-based; settings: Homo sapiens, single dose 10 µM, '-' = no inhibition, read-out: % Growth Inhibition
How it was run: as §1

OVCAR-3 = assay: NCI-60 single-dose screen; type: cell-based; settings: Homo sapiens, single dose 10 µM, '-' = no inhibition, read-out: % Growth Inhibition
How it was run: as §1

MCF7 = assay: NCI-60 single-dose screen; type: cell-based; settings: Homo sapiens, single dose 10 µM, '-' = no inhibition, read-out: % Growth Inhibition
How it was run: as §1

TK-10 = assay: NCI-60 single-dose screen; type: cell-based; settings: Homo sapiens, single dose 10 µM, '-' = no inhibition, read-out: % Growth Inhibition
How it was run: as §1

M14 = assay: NCI-60 single-dose screen; type: cell-based; settings: Homo sapiens, single dose 10 µM, '-' = no inhibition, read-out: % Growth Inhibition
How it was run: as §1

HCT-15 = assay: NCI-60 single-dose screen; type: cell-based; settings: Homo sapiens, single dose 10 µM, '-' = no inhibition, read-out: % Growth Inhibition
How it was run: as §1

SF-295 = assay: NCI-60 single-dose screen; type: cell-based; settings: Homo sapiens, single dose 10 µM, '-' = no inhibition, read-out: % Growth Inhibition
How it was run: as §1

SR = assay: NCI-60 single-dose screen; type: cell-based; settings: Homo sapiens, single dose 10 µM, '-' = no inhibition, read-out: % Growth Inhibition
How it was run: as §1

EKVX = assay: NCI-60 single-dose screen; type: cell-based; settings: Homo sapiens, single dose 10 µM, '-' = no inhibition, read-out: % Growth Inhibition
How it was run: as §1

IGROV1 = assay: NCI-60 single-dose screen; type: cell-based; settings: Homo sapiens, IGROV-1, single dose 10 µM, '-' = no inhibition, read-out: % Growth Inhibition
How it was run: as §1

HCC-2998 = assay: NCI-60 single-dose screen; type: cell-based; settings: Homo sapiens, single dose 10 µM, '-' = no inhibition, read-out: % Growth Inhibition
How it was run: as §1

MALME-3M = assay: NCI-60 single-dose screen; type: cell-based; settings: Homo sapiens, single dose 10 µM, '-' = no inhibition, read-out: % Growth Inhibition
How it was run: as §1

NCI-H522 = assay: NCI-60 single-dose screen; type: cell-based; settings: Homo sapiens, single dose 10 µM, '-' = no inhibition, read-out: % Growth Inhibition
How it was run: as §1

MDA-MB231/ATCC = assay: NCI-60 single-dose screen; type: cell-based; settings: Homo sapiens, MDA-MB-231, single dose 10 µM, '-' = no inhibition, read-out: % Growth Inhibition
How it was run: as §1

CAKI-1 = assay: NCI-60 single-dose screen; type: cell-based; settings: Homo sapiens, single dose 10 µM, '-' = no inhibition, read-out: % Growth Inhibition
How it was run: as §1

UO-31 = assay: NCI-60 single-dose screen; type: cell-based; settings: Homo sapiens, single dose 10 µM, '-' = no inhibition, read-out: % Growth Inhibition
How it was run: as §1

SNB-75 = assay: NCI-60 single-dose screen; type: cell-based; settings: Homo sapiens, single dose 10 µM, '-' = no inhibition, read-out: % Growth Inhibition
How it was run: as §1

K-562 = assay: NCI-60 single-dose screen; type: cell-based; settings: Homo sapiens, K562, single dose 10 µM, '-' = no inhibition, read-out: % Growth Inhibition
How it was run: as §1

SK-MEL-2 = assay: NCI-60 single-dose screen; type: cell-based; settings: Homo sapiens, single dose 10 µM, '-' = no inhibition, read-out: % Growth Inhibition
How it was run: as §1

SF-268 = assay: NCI-60 single-dose screen; type: cell-based; settings: Homo sapiens, single dose 10 µM, '-' = no inhibition, read-out: % Growth Inhibition
How it was run: as §1

A498 = assay: NCI-60 single-dose screen; type: cell-based; settings: Homo sapiens, single dose 10 µM, '-' = no inhibition, read-out: % Growth Inhibition
How it was run: as §1

SK-OV-3 = assay: NCI-60 single-dose screen; type: cell-based; settings: Homo sapiens, single dose 10 µM, '-' = no inhibition, read-out: % Growth Inhibition
How it was run: as §1

LOX IMVI = assay: NCI-60 single-dose screen; type: cell-based; settings: Homo sapiens, single dose 10 µM, '-' = no inhibition, read-out: % Growth Inhibition
How it was run: as §1

HL-60(TB) = assay: NCI-60 single-dose screen; type: cell-based; settings: Homo sapiens, single dose 10 µM, '-' = no inhibition, read-out: % Growth Inhibition

## C=CCSc1nc(-c2ccc(Cl)cc2)cc(-c2ccc(OC)c(OC)c2)n1 [Compound 27, 2-(Allylthio)-4-(4-chlorophenyl)-6-(3,4-dimethoxyphenyl)pyrimidine]
SN12C
  inhibition at 10 µM: 14.3%
NCI-H23
  inhibition at 10 µM: 7.78%
UACC-257
  inhibition at 10 µM: < 0%
UACC-62
  inhibition at 10 µM: 26%
MDA-MB-435
  inhibition at 10 µM: 6.35%
ACHN 1
  inhibition at 10 µM: 6.5%
MDA-MB-468
  inhibition at 10 µM: 23.7%
PC-3
  inhibition at 10 µM: 15.7%
RXF 393
  inhibition at 10 µM: 3.07%
MOLT-4
  inhibition at 10 µM: 28.5%
SF-539
  inhibition at 10 µM: < 0%
RPMI-8226
  inhibition at 10 µM: 14.3%
OVCAR-8
  inhibition at 10 µM: 7.89%
KM12
  inhibition at 10 µM: 3.43%
HT29
  inhibition at 10 µM: 22.6%
SW-620
  inhibition at 10 µM: 1.7%
BT-549
  inhibition at 10 µM: 3.91%
SNB-19
  inhibition at 10 µM: 8.39%
DU-145
  inhibition at 10 µM: 2.02%
NCI-H460
  inhibition at 10 µM: 6.7%
NCI-H322M
  inhibition at 10 µM: < 0%
NCI/ADR-RES
  inhibition at 10 µM: 21.8%
CCRF-CEM
  inhibition at 10 µM: 13.1%
SK-MEL-28
  inhibition at 10 µM: < 0%
OVCAR-3
  inhibition at 10 µM: < 0%
MCF7
  inhibition at 10 µM: 17.9%
TK-10
  inhibition at 10 µM: < 0%
M14
  inhibition at 10 µM: 0.06%
HCT-15
  inhibition at 10 µM: 18.8%
SF-295
  inhibition at 10 µM: 3%
SR
  inhibition at 10 µM: 30.3%
EKVX
  inhibition at 10 µM: 12.2%
IGROV1
  inhibition at 10 µM: < 0%
HCC-2998
  inhibition at 10 µM: < 0%
MALME-3M
  inhibition at 10 µM: < 0%
NCI-H522
  inhibition at 10 µM: 16.4%
MDA-MB231/ATCC
  inhibition at 10 µM: 7.53%
CAKI-1
  inhibition at 10 µM: 13.1%
UO-31
  inhibition at 10 µM: 22.9%
SNB-75
  inhibition at 10 µM: < 0%
K-562
  inhibition at 10 µM: 42%
SK-MEL-2
  inhibition at 10 µM: 0.52%
SF-268
  inhibition at 10 µM: < 0%
A498
  inhibition at 10 µM: < 0%
SK-OV-3
  inhibition at 10 µM: < 0%
LOX IMVI
  inhibition at 10 µM: 7.11%
HL-60(TB)
  inhibition at 10 µM: 29.2%
other
  melting point: 244 to 246 °C
